A short description of data set [1]: displacement of a pre-adsorbed FL-BP from CaP-coated culture wells by a different FL-BP. It counts as binding. Particulars: FIG. 1 Panel A. The protocol:
FIG. 1, Panels A-C, illustrates displacement of an adsorbed fluorescently labeled BP (FL-BP) from a hydroxyapatite surface mimicking bone by a different fluorescently labeled BP. Synthetic bone/dentine (calcium phosphate, CaP)-coated culture wells were pre-treated with either ROX-RIS or 5-FAM-RIS (50 μM) After challenged by serially diluted doses of 5-FAM-RIS or ROX-RIS (from 0 to 50 μM), respectively, Carboxyl-X-Rhodamine (ROX) and carboxyfluorescein (FAM) fluorescence intensities of the CaP-coated wells were measured. Panel A: ROX-RIS in CaP (first bars of each set) remained near the pre-adsorbed 50 μM level until 5 μM or greater concentrations of 5-FAM-RIS challenged. In contrast, 5-FAM-RIS (second bars of each set) was rapidly displaced by concentrations of ROX-RIS as low as 1 μM. Panel B: Pre-adsorbed FAM-RIS was replaced by ROX-RIS between 10 μM to 50 μM. Panel C: The quantitative measurement of FAM and ROX fluorescent signals was conducted by standardized fluorescent biophotonics and a proprietary program (LAS3000, FUJIFILM, Tokyo, Japan).

In data set [2] the test system is ZOL-induced mouse BRONJ model. Kind of data set: ZOL-induced mouse BRONJ/ONJ model (ZOL IV injection followed by maxillary first molar extraction). The settings on record: for development of ONJ-like lesions at the tooth extraction sites: ZOL 500 μg/kg IV, intra-oral injection one day prior to extraction, 14 days after extraction, FIG. 21; for histology of maxilla at the tooth extraction site: ONJ-like lesion: 2 weeks after extraction, one time oral injection in ZOL-mice, FIG. 20; for development of ONJ-like lesions: FIG. 19C; for ZOL-injected mice with open oral wound: 500 μg/Kg ZOL via tail vein. It counts as in vivo. The protocol:
AF647-ZOL was applied by intra-oral injection or IV injection 1 day prior to tooth extraction. FIG. 16B are images of mouse maxilla and the oral mucosa inflammation and swelling (white dotted lines, left and right panels) with various degrees of jawbone exposure (arrow) at the tooth extraction site of ZOL-treated mice (BRONJ control: n−4). […]
Panel A is a diagram of the experimental time line. Mice treated by IV injection of ZOL (500 μg/kg) received an intra-oral injection of AF647-ZOL, MHDP or ETI (etidronate) one day prior to maxillary 1″ molar extraction. The development of ONJ was evaluated 14 days after tooth extraction.
The C57BL/6J (B6) mice model of ONJ is used. The consistent tissue source in this study is mouse maxillary bone with or without tooth extraction, as well as femurs, mandibles and L4/L5 lumber bones. Tooth extraction animal models for studying wound healing in mice have been well established in our and other laboratories. Systemic bisphosphonate treatment is accomplished by IV injection and the proposed local application of FL-BP is accomplished by intraoral injection to gingival/palatal tissue of mouse maxilla. Mice are subjected to maxillary molar extraction. After anesthesia and vital signs checked, the animal is placed on a bed supporting the isoflurane tubing while keeping the mouth opening. Ophthalmic ointment (bland, e.g., Lacrilube) is applied. The maxillary molar area is wiped with 0.12% Chlorhexidine gluconate solution (Peridex, oral rinse). An autoclaved dental explorer is used as an exodontia elevator after careful reflection of the cervical mucosa to minimize post-extraction discomfort. An autoclaved cotton swab is placed on the extraction socket until the initial blood coagulation is established. Maxillary 1st molar is then extracted unilaterally from so that the remaining untreated side can be utilized for chewing. In our previous experiments, the entire procedure takes about 5-15 minutes. […]
In a preliminary study female B6 mice were injected 500 μg/Kg ZOL (equivalent to 200 μl of 350 μM ZOL) via tail vein and one week later, maxillary left first molar was extracted. […]
Therefore, as schematically shown in FIG. 19B mouse maxillae were treated with ZOL and then either 2 μg of MHDP was orally injected to the site of the molar to be extracted or 100 μg of MHDP was IV injected and the sites of molar extraction of treated mouse maxilla were compared to controls.

The test system of another data set is Rap1A prenylation. Kind of data set: Western blot of Rap1A prenylation in J774 macrophages. It counts as cell-based, mouse. Particulars: 10 μM and 100 μM dose. A general note: Immunoblotting shows a protein as a band on a membrane.
Data set [3] has as its system mouse femur trabecular bone. The data set can be described thus: micro CT evaluation of mouse femur trabecular structure (anti-resorptive function in vivo). The settings on record: for anti-resorptive effect: vs saline (0.9% NaCl) vehicle. As to the method: FIG. 19A to FIG. 19C present evidence that certain alkylidene bisphosphonates can be used to displace active BPs in vivo in the mouse model. […] FIG. 19B outlines the protocol for the experiments using MHDP to treat C57B16 mice. An ONJ-like lesion was generated by ZOL IV injection into the mouse, followed by extraction of the maxillary first molar. One day prior to the tooth extraction, a group of mice received intra-oral injection of 2 μg MHDP and another group received IV injection of 100 μg MHDP. FIG. 19C presents images of the mouse maxilla.
This study determines the anti-resorptive function of FL-BP in vivo, as compared to ZOL. Female B6 mice were injected with 50 μM ZOL (n=6), 50 μM FL-BP (n=6) or 0.9% NaCl vehicle solution (control: n=6) via tail vein. Three weeks later, mice were euthanized and femur and L4/L5 were harvested. After fixed in 10% buffered formalin, bone samples were subjected to micro CT analysis. The anti-resorptive function were quantitatively established by the trabecular bone three-dimensional morphometry (e.g., BV/TV, Tb.N, Tb.Th, TbSp). FL-BPs with minimal or no pharmacological BP function are used.
Mice were IV injected with 0.9% NaCl (vehicle solution), ZOL (184 μM×100 μL=5.0 μg/animal) or AF647-ZOL (184 μM×100 μL=22.0 μg/animal) and femurs were harvested 2 weeks after injection. The micro CT data were compared.

A further data set has as its system mouse maxilla. Kind of data set: preliminary study: fluorescent imaging of mouse maxilla after 5-FAM-ZOL IV or ROX-RIS intraoral injection. Particulars: single intraoral 25 μl of 50 μM; 2 days after. It counts as in vivo. As to the method:
In a preliminary study female C57B16/J (B6) mice (8 weeks old) received either a single IV injection via tail vein of 200 μl of 350 μM 5-FAM-ZOL (5-FAM-ZOL, #BV111001, BioVinc LLC, Culver City, Calif.) or a single intraoral injection of 25 μl of 50 μM ROX-RIS (5(6)-ROX-RIS, #BV150101, BioVinc LLC, CA) to gingival/palatal tissue at maxillary left first molar (white arrow in FIG. 11). […], mice were euthanized 3 weeks after the IV injection of 5-FAM-ZOL or 2 days after the intraoral injection of ROX-RIS. Skulls (containing maxilla) were harvested and standardized fluorescent biophotonics image was obtained using an excitation wavelength of 460 nm and the 515 nm filter (LAS3000, FUJIFILM Corp).

A short description of data set [4]: hydroxyapatite (HAP) binding affinity, relative retention times normalized to RIS. Particulars: FIG. 7. As to the method: FIG. 7 is a bar graph showing hydroxyapatite (HAP) binding affinity of Zoledronate (ZOL), ROX-RIS, 5-FAM-ZOL, and AF647-ZOL. Relative retention times were normalized to RIS.
Hydroxyapatite assays indicate that the FL-BPs generally retain substantial affinity for bone mineral that reflect the affinity of the BP component and to a lesser extent, the affinity of the conjugated fluorophore. Hydroxyapatite (Macro-Prep® Ceramic hydroxyapatite Type II […]) was obtained from Bio-Rad Laboratories, Inc. Hercules, Calif. Accurately weighed hydroxyapatite powder (1.4-1.6 mg) was suspended in a 4 mL clear vial containing the appropriate volume of assay buffer (0.05% (wt/vol) Tween20, 10 μM EDTA and 100 mM HEPES pH=7.4) for 3 hours. Hydroxyapatite was then incubated with increasing amounts of FAM-BP and ROX-BP (0, 25, 50, 100, 200, and 300 μM). Samples were gently shaken for 3 hours at 37° C. in appropriate volume of assay buffer (0.05% (wt/vol) Tween20, 10 μM EDTA and 100 mM HEPES pH=7.4). Subsequent to the equilibrium period, the vials were centrifuged at 10,000 rpm for 5 minutes to separate the solids and the supernatant. 0.3 mL of the supernatant was collected and the equilibrium solution concentration is measured by using Shimadzu UV-VIS spectrometer. For the calibration series, FL-BP probe standards were prepared by serial dilution from the stock solution with the same isotherm buffer to give the range from 0 to 400 μM. Calibration curves were constructed using standard solutions of the target FL-BPs. Fluorescent emission can also be used to calculate the binding parameters. Nonspecific binding was measured with a similar procedure in the absence of hydroxyapatite as control. Binding parameters (Kd and Bmax, represent the equilibrium dissociate constant and maximum number of binding sites, respectively) were calculated using the PRISM program (Graphpad, USA). The binding parameters of each compound was measured in 5 independent experiments. […]

Setting [5] is: IV 184 μM×100 μL, femurs 2 weeks after injection.

Results on five molecules are retold here after patent US11400104B2, “Skeletal removal of bisphosphonates” (The Regents of the University of California, priority 2016, dated 2022).

“Also recorded” adds a separate entry of the source.

Turning to `O=C(NCC(O)C[n+]1cccc(CC(O)(P(=O)(O)O)P(=O)(O)O)c1)c1ccc(-c2c3ccc(=O)cc-3oc3cc(O)ccc23)c(C(=O)O)c1` (centres unmarked) [5-FAM-RIS], the “concentration of challenging 5-FAM-RIS up to which pre-adsorbed ROX-RIS remained near the pre-adsorbed level” value in data set [1] (CaP wells pre-treated with 50 μM ROX-RIS) is no less than 5 µM.

For the molecule `CC(O)(P(=O)(O)O)P(=O)(O)O` [ETI, ethylene hydroxyl bisphosphonate, reference compound], in data set [2], the “development of ONJ-like lesions at the tooth extraction sites” value was “appeared to be prevented”. Besides, the “inhibition of Rap1A prenylation (accumulated unprenylated Rap1A)” value (from here on “inhibition of Rap1A prenylation”) in the data set on Rap1A prenylation is “not”.

Regarding `O=P(O)(O)C(O)P(=O)(O)O` [MHDP, methylene hydroxyl bisphosphonate], in data set [2], the “histology of maxilla at the tooth extraction site: ONJ-like lesion” value is given as “did not develop an ONJ-like lesion” and the “development of ONJ-like lesions at the tooth extraction sites” value is listed as “appeared to be prevented”. In data set [2] (IV injection of 100 μg one day prior to extraction), the “development of ONJ-like lesions” value is given as “prevented the development of ONJ-like lesions”. Further, the “development of ONJ-like lesions” value in data set [2] (intra-oral injection of 2 μg one day prior to extraction) is given as “prevented the development of ONJ-like lesions”. The “inhibition of Rap1A prenylation” value in the data set with Rap1A prenylation is “not”. Further, the anti-resorptive effect entry in data set [3] (FIG. 19A) was “lack of anti-resorptive activity; also recorded: lack of anti-resorptive effect”.

Take `O=C(NCC(O)C[n+]1cccc(CC(O)(P(=O)(O)O)P(=O)(O)O)c1)c1ccc(C2=c3cc4c5c(c3Oc3c2cc2c6c3CCCN6CCC2)CCC[N+]=5CCC4)c(C(=O)O)c1` (centres unmarked) [ROX-RIS]: in the data set with mouse maxilla, the “fluorescent signal in palatal bone around the injection site” value is given as “localized red fluorescent signal”. Moreover, the “concentration of challenging ROX-RIS that displaced pre-adsorbed 5-FAM-RIS” value in data set [1] (CaP wells pre-treated with 50 μM 5-FAM-RIS) was no less than 1 µM. For the same molecule, the “influence of the fluorophore on hydroxyapatite affinity” value in data set [4] is listed as “enhancement”.

With `O=P(O)(O)C(O)(Cn1ccnc1)P(=O)(O)O` [ZOL, zoledronate], the “ZOL-injected mice with open oral wound” value in data set [2] (2 weeks of tooth extraction) stood at 100%. Also, the “ZOL-injected mice with open oral wound” value in data set [2] (4 weeks of tooth extraction) was 50%. Besides, the “histology of maxilla at the tooth extraction site: ONJ-like lesion” value in data set [2] is recorded as “development of an ONJ-like lesion”. In addition, in data set [2] (ZOL IV, then maxillary first molar extraction), the “tooth extraction wound healing in ZOL-injected mice” value is “delayed wound healing with gingival swelling and jawbone exposure”. Besides, the “inhibition of Rap1A prenylation” value with Rap1A prenylation was “inhibited Rap1A prenylation”. Moreover, in data set [3] (FIG. 19A, trabecular bone), the “bone volume over tissue volume (BV/TV)” value was “increased” and the “connectivity density (ConnD)” value is “decreased”. Further, the anti-resorptive effect result in data set [3] (FIG. 19A) was “significant anti-resorptive effect”. For the same molecule, in data set [3] (setting [5]), the connectivity density entry is reported as “nearly doubled” and the “volume of femur trabecular bone (BV/TV)” value is listed as “nearly doubled”. Further, the bone structural parameters result in data set [3] (IV 184 μM×100 μL, femurs 2 weeks after injection, FIG. 14) is “significantly increased”.
